According to PubChem BioAssay AID328 (DTP/NCI, 2004):
Several values for one entry are separate records, joined by “and”; a condition that tells them apart may be missing. Identical values can stand only once. Toxic doses and inconclusive results are not listed. Residues, ends and D or L forms follow the SMILES beside them.

System: BDF1 mice, P388 leukemia ip, median survival T/C
Experiment: NCI In Vivo Anticancer Drug Screen. Data for tumor model P388 Leukemia (intraperitoneal) in B6D2F1 (BDF1) mice
Details: endpoint: median survival time, higher = longer survival
Method in brief: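 T/C = treated-group survival ÷ vehicle-control survival; tumour transplanted into mice before dosing.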

[1] = dose: 6.25 mg/kg/injection, schedule: Q04DX003 (ip), vehicle: saline
[2] = dose: 12.5 mg/kg/injection, schedule: Q04DX003 (ip), vehicle: saline
[3] = dose: 25.0 mg/kg/injection, schedule: Q04DX003 (ip), vehicle: saline
[4] = dose: 100.0 mg/kg/injection, schedule: Q04DX003 (ip), vehicle: saline with Tween-80
[5] = dose: 12.5 mg/kg/injection, schedule: Q01DX009 (ip), vehicle: saline with Tween-80
[6] = dose: 25.0 mg/kg/injection, schedule: Q01DX009 (ip), vehicle: saline with Tween-80
[7] = dose: 100.0 mg/kg/injection, schedule: Q01DX001 (ip), vehicle: saline with Tween-80
[8] = dose: 50.0 mg/kg/injection, schedule: Q01DX009 (ip), vehicle: saline with Tween-80
[9] = dose: 100.0 mg/kg/injection, schedule: Q01DX009 (ip), vehicle: saline with Tween-80
[10] = dose: 200.0 mg/kg/injection, schedule: Q01DX009 (ip), vehicle: saline with Tween-80
[11] = dose: 200.0 mg/kg/injection, schedule: Q04DX003 (ip), vehicle: saline with Tween-80
[12] = dose: 50.0 mg/kg/injection, schedule: Q01DX009 (ip), vehicle: saline
[13] = dose: 100.0 mg/kg/injection, schedule: Q01DX009 (ip), vehicle: saline

## Nc1cc(OCc2ccccc2)cc(OCc2ccccc2)c1
dose: 6.25 mg/kg/injection, schedule: Q01DX009 (ip), vehicle: water
  T/C: 96 % of control
dose: 12.5 mg/kg/injection, schedule: Q01DX009 (ip), vehicle: water
  T/C: 96 % of control and 101 % of control
dose: 12.5 mg/kg/injection, schedule: Q04DX003 (ip), vehicle: water
  T/C: 105 % of control
dose: 25.0 mg/kg/injection, schedule: Q01DX009 (ip), vehicle: water
  T/C: 99 % of control and 105 % of control
dose: 25.0 mg/kg/injection, schedule: Q04DX003 (ip), vehicle: water
  T/C: 99 % of control
dose: 50.0 mg/kg/injection, schedule: Q01DX009 (ip), vehicle: water
  T/C: 97 % of control and 98 % of control
dose: 50.0 mg/kg/injection, schedule: Q04DX003 (ip), vehicle: water
  T/C: 99 % of control
dose: 100.0 mg/kg/injection, schedule: Q01DX009 (ip), vehicle: water
  T/C: 92 % of control and 100 % of control
dose: 100.0 mg/kg/injection, schedule: Q04DX003 (ip), vehicle: water
  T/C: 106 % of control and 107 % of control and 108 % of control
dose: 200.0 mg/kg/injection, schedule: Q04DX003 (ip), vehicle: water
  T/C: 95 % of control and 96 % of control

## C[N+](C)(CC(=O)Nc1ccc(Cl)c(Cl)c1)CC(=O)c1ccc(Cl)cc1
[1]
  T/C: 110 % of control
[2]
  T/C: 95 % of control
[3]
  T/C: 100 % of control

## CC(=O)OCC(OC(C)=O)C(OC(C)=O)C(C#N)OC(C)=O (stereo unspecified)
dose: 50.0 mg/kg/injection, schedule: Q04DX003 (ip), vehicle: saline with Tween-80
  T/C: 95 % of control
[4]
  T/C: 95 % of control

## c1cc(Nc2ccncc2)ccn1
dose: 6.25 mg/kg/injection, schedule: Q01DX009 (ip), vehicle: saline with Tween-80
  T/C: 96 % of control
[1]
  T/C: 115 % of control
[5]
  T/C: 104 % of control
[2]
  T/C: 92 % of control
[6]
  T/C: 108 % of control
[3]
  T/C: 107 % of control

## COc1ccc(CNCC(OC)OC)cc1O
[7]
  T/C: 99 % of control
dose: 200.0 mg/kg/injection, schedule: Q01DX001 (ip), vehicle: saline with Tween-80
  T/C: 102 % of control

## COC(=O)C(CSCSC)NC(=O)/C=C\c1ccccc1 (stereo unspecified)
[8]
  T/C: 100 % of control
[9]
  T/C: 104 % of control
[4]
  T/C: 95 % of control
[10]
  T/C: 109 % of control
[11]
  T/C: 91 % of control
dose: 400.0 mg/kg/injection, schedule: Q01DX009 (ip), vehicle: saline with Tween-80
  T/C: 90 % of control

## OCC1OC(n2cnc3c(SSc4ncnc5c4ncn5C4OC(CO)C(O)C4O)ncnc32)C(O)C1O (stereo unspecified)
dose: 118.0 mg/kg/injection, schedule: Q01DX010 (ip), vehicle: saline
  T/C: 104 % of control
dose: 178.0 mg/kg/injection, schedule: Q01DX010 (ip), vehicle: saline
  T/C: 104 % of control

## O=c1ccccc(Br)c1O
dose: 25.0 mg/kg/injection, schedule: Q01DX001 (ip), vehicle: Klucel (hydroxypropylcellulose) (HPC)
  T/C: 110 % of control
dose: 100.0 mg/kg/injection, schedule: Q01DX001 (ip), vehicle: Klucel (hydroxypropylcellulose) (HPC)
  T/C: 121 % of control

## OC(c1ccccc1)c1ccccc1CN1CCCNC1=S (stereo unspecified)
[8]
  T/C: 95 % of control
[9]
  T/C: 103 % of control
[10]
  T/C: 94 % of control

## O=C1OC(=O)C2C1C(c1ccc([N+](=O)[O-])cc1)N1C3C(=O)OC(=O)C3C(c3ccc([N+](=O)[O-])cc3)N21 (stereo unspecified)
[8]
  T/C: 97 % of control
[9]
  T/C: 99 % of control
[10]
  T/C: 92 % of control

## COC(=O)C(NC(=O)C(NC(=O)C(N)C(C)C)C(C)C)C(C)C (stereo not drawn) (H-Val-Val-Val-OMe; configuration not given here)
dose: 50.0 mg/kg/injection, schedule: Q01DX005 (ip), vehicle: saline
  T/C: 101 % of control
dose: 100.0 mg/kg/injection, schedule: Q01DX005 (ip), vehicle: saline
  T/C: 99 % of control
dose: 200.0 mg/kg/injection, schedule: Q01DX005 (ip), vehicle: saline
  T/C: 92 % of control

## O=C(Oc1ccc([N+](=O)[O-])cc1)c1ccc(C[n+]2ccccc2)cc1
[8]
  T/C: 91 % of control
[12]
  T/C: 89 % of control
dose: 50.0 mg/kg/injection, schedule: Q04DX003 (ip), vehicle: saline
  T/C: 91 % of control
[9]
  T/C: 109 % of control
[13]
  T/C: 89 % of control
dose: 100.0 mg/kg/injection, schedule: Q04DX003 (ip), vehicle: saline
  T/C: 104 % of control and 108 % of control
[10]
  T/C: 116 % of control
dose: 200.0 mg/kg/injection, schedule: Q01DX009 (ip), vehicle: saline
  T/C: 96 % of control
dose: 200.0 mg/kg/injection, schedule: Q04DX003 (ip), vehicle: saline
  T/C: 90 % of control and 100 % of control

## O=C1N(c2ccccc2)CCC12CCNCC2
[12]
  T/C: 94 % of control
[13]
  T/C: 94 % of control

## CN(C)c1ccc(/C=C2\C=Cc3ccccc32)cc1Br
dose: 25.0 mg/kg/injection, schedule: Q04DX003 (sc), vehicle: olive oil, sesame oil, peanut oil
  T/C: 95 % of control
dose: 50.0 mg/kg/injection, schedule: Q04DX003 (sc), vehicle: olive oil, sesame oil, peanut oil
  T/C: 100 % of control
dose: 100.0 mg/kg/injection, schedule: Q04DX003 (sc), vehicle: olive oil, sesame oil, peanut oil
  T/C: 87 % of control

## C(/C=C/C=C/N1CCCCC1)=[N+]1CCCCC1
dose: 0.13 mg/kg/injection, schedule: Q01DX009 (ip), vehicle: saline
  T/C: 97 % of control
dose: 0.25 mg/kg/injection, schedule: Q01DX009 (ip), vehicle: saline
  T/C: 104 % of control
dose: 0.5 mg/kg/injection, schedule: Q01DX009 (ip), vehicle: saline
  T/C: 89 % of control
dose: 1.0 mg/kg/injection, schedule: Q01DX009 (ip), vehicle: saline
  T/C: 110 % of control

## COC(=O)CCSC(c1ccccc1)(c1ccccc1)c1ccccc1
dose: 87.0 mg/kg/injection, schedule: Q01DX009 (ip), vehicle: Klucel (hydroxypropylcellulose) (HPC)
  T/C: 96 % of control

## C[C@@H]1CCC[C@@H](NC(=O)N(CCCl)N=O)C1
dose: 9.37 mg/kg/injection, schedule: Q01DX009 (ip), vehicle: Klucel (hydroxypropylcellulose) (HPC)
  T/C: 151 % of control
dose: 18.75 mg/kg/injection, schedule: Q01DX009 (ip), vehicle: Klucel (hydroxypropylcellulose) (HPC)
  T/C: 157 % of control
dose: 37.5 mg/kg/injection, schedule: Q01DX009 (ip), vehicle: Klucel (hydroxypropylcellulose) (HPC)
  T/C: 252 % of control
dose: 75.0 mg/kg/injection, schedule: Q01DX009 (ip), vehicle: Klucel (hydroxypropylcellulose) (HPC)
  T/C: 120 % of control

## CCc1nnc2n1N=C(c1ccc(-c3ccccc3)cc1)CS2
[8]
  T/C: 90 % of control
[9]
  T/C: 89 % of control
[10]
  T/C: 90 % of control

## COC(=O)C(N)CN (stereo unspecified)
dose: 175.0 mg/kg/injection, schedule: Q01DX009 (ip), vehicle: saline with Tween-80
  T/C: 89 % of control

## CS(=O)(=O)OCCSc1nc2ccccc2n1Cc1ccccc1
dose: 25.0 mg/kg/injection, schedule: Q01DX001 (ip), vehicle: saline with Tween-80
  T/C: 100 % of control
dose: 50.0 mg/kg/injection, schedule: Q01DX001 (ip), vehicle: saline with Tween-80
  T/C: 106 % of control
[7]
  T/C: 101 % of control

## Nc1cccc(NC=O)c1
[5]
  T/C: 100 % of control
[6]
  T/C: 108 % of control
[8]
  T/C: 95 % of control

## C[C@@H]1CC2=CC(=O)C=C[C@]2(C)[C@H]2CC[C@@]3(C)[C@@H](CC[C@]3(C)O)[C@H]12
dose: 50.0 mg/kg/injection, schedule: Q01DX009 (sc), vehicle: steriod suspending solution
  T/C: 95 % of control
dose: 100.0 mg/kg/injection, schedule: Q01DX009 (ip), vehicle: Klucel (hydroxypropylcellulose) (HPC)
  T/C: 88 % of control
dose: 100.0 mg/kg/injection, schedule: Q01DX009 (sc), vehicle: steriod suspending solution
  T/C: 90 % of control
dose: 100.0 mg/kg/injection, schedule: Q04DX003 (ip), vehicle: Klucel (hydroxypropylcellulose) (HPC)
  T/C: 91 % of control
dose: 200.0 mg/kg/injection, schedule: Q01DX009 (ip), vehicle: Klucel (hydroxypropylcellulose) (HPC)
  T/C: 100 % of control
dose: 200.0 mg/kg/injection, schedule: Q01DX009 (sc), vehicle: steriod suspending solution
  T/C: 86 % of control
dose: 200.0 mg/kg/injection, schedule: Q04DX003 (ip), vehicle: Klucel (hydroxypropylcellulose) (HPC)
  T/C: 95 % of control
dose: 400.0 mg/kg/injection, schedule: Q01DX009 (ip), vehicle: Klucel (hydroxypropylcellulose) (HPC)
  T/C: 88 % of control
dose: 400.0 mg/kg/injection, schedule: Q04DX003 (ip), vehicle: Klucel (hydroxypropylcellulose) (HPC)
  T/C: 91 % of control

## COc1ccc2c(c1)CCC(C)(C#N)C2=O (stereo unspecified)
[6]
  T/C: 100 % of control
[8]
  T/C: 100 % of control
[9]
  T/C: 104 % of control

## CCCCOB=O
[4]
  T/C: 109 % of control
[11]
  T/C: 100 % of control

## CN(C)C1CCCCC1
dose: 25.0 mg/kg/injection, schedule: Q04DX003 (ip), vehicle: Klucel (hydroxypropylcellulose) (HPC)
  T/C: 91 % of control
dose: 50.0 mg/kg/injection, schedule: Q04DX003 (ip), vehicle: Klucel (hydroxypropylcellulose) (HPC)
  T/C: 95 % of control
